PubChem BioAssay AID1918939 (Molecular Pharmacology Branch, DTP, NCI, 2023)

Tested on: 653999-131-R-J2-PDC complex spheroid viability
Assay: Anticancer human tumor 653999-131-R-J2-PDC patient-derived lung adenocarcinoma cell line growth inhibition
Details: for IC50: curve of first compound; for viability, T/C: stronger effect = lower value
Method in brief: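 Drug combinations with the LSD1 inhibitor iadademstat tested on tumor cells co-cultured as spheroids with endothelial cells and mesenchymal stem cells. Concentrations descended in half-log increments from clinical Cmax or 10 microM.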

[1] = second compound 0.1 µM, first compound 0.000316 µM
[2] = second compound 0.1 µM, first compound 0.001 µM
[3] = second compound 0.1 µM, first compound 0.00316 µM
[4] = second compound 0.1 µM, first compound 0.01 µM
[5] = second compound 0.1 µM, first compound 0.0316 µM
[6] = second compound 0.1 µM, first compound 0.1 µM
[7] = second compound 0.316 µM, first compound 0.000316 µM
[8] = second compound 0.316 µM, first compound 0.001 µM
[9] = second compound 0.316 µM, first compound 0.00316 µM
[10] = second compound 0.316 µM, first compound 0.01 µM
[11] = second compound 0.316 µM, first compound 0.0316 µM
[12] = second compound 0.316 µM, first compound 0.1 µM
[13] = second compound 1 µM, first compound 0.000316 µM
[14] = second compound 1 µM, first compound 0.001 µM
[15] = second compound 1 µM, first compound 0.00316 µM
[16] = second compound 1 µM, first compound 0.01 µM
[17] = second compound 1 µM, first compound 0.0316 µM
[18] = second compound 1 µM, first compound 0.1 µM
[19] = second compound 3.16 µM, first compound 0.000316 µM
[20] = second compound 3.16 µM, first compound 0.001 µM
[21] = second compound 3.16 µM, first compound 0.00316 µM
[22] = second compound 3.16 µM, first compound 0.01 µM
[23] = second compound 3.16 µM, first compound 0.0316 µM
[24] = second compound 3.16 µM, first compound 0.1 µM
[25] = second compound 10 µM, first compound 0.000316 µM
[26] = second compound 10 µM, first compound 0.001 µM
[27] = second compound 10 µM, first compound 0.00316 µM
[28] = second compound 10 µM, first compound 0.01 µM
[29] = second compound 10 µM, first compound 0.0316 µM
[30] = second compound 10 µM, first compound 0.1 µM
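Note: spheroids exposed to agents for seven days before readout.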

`CC(C)CC(NC(=O)C(Cc1ccccc1)NC(=O)c1cnccn1)B(O)O` (stereo not given) + NC1CC1c1ccc(-c2cccc(O)c2)cc1 gave an IC50 (second compound 0.1 µM) of 0.832 nM, an IC50 (second compound 0.316 µM) of 0.904 nM and an IC50 (second compound 1 µM) of 0.786 nM. It also gave an IC50 (second compound 3.16 µM) of 0.979 nM, an IC50 (second compound 10 µM) of 0.589 nM and a viability, T/C [1] of 122%. For the same compound, the viability, T/C [2] was 35.4%, the viability, T/C [3] was 12.9% and the viability, T/C [4] was 4.58%. For the same compound, the viability, T/C [5] was 1.38%, the viability, T/C [6] was 2.17% and the viability, T/C [7] was 110%. The viability, T/C [8] was 44.2%, the viability, T/C [9] was 11.4% and the viability, T/C [10] was 3.25%. It also gave a viability, T/C [11] of 1.54%, a viability, T/C [12] of 1.44% and a viability, T/C [13] of 109%. For the same compound, the viability, T/C [14] was 34%, the viability, T/C [15] was 11.6% and the viability, T/C [16] was 3.96%. The viability, T/C [17] was 0.99%, the viability, T/C [18] was 4.31% and the viability, T/C [19] was 103%. It also gave a viability, T/C [20] of 48.9%, a viability, T/C [21] of 16% and a viability, T/C [22] of 3.4%. The viability, T/C [23] was 1.41%, the viability, T/C [24] was 2.37% and the viability, T/C [25] was 74.4%. It also gave a viability, T/C [26] of 29.1%, a viability, T/C [27] of 9.61% and a viability, T/C [28] of 3.68%. The viability, T/C [29] was 1.33% and the viability, T/C [30] was 2.12%.
Compound `CC(C)CC(NC(=O)CNC(=O)c1cc(Cl)ccc1Cl)B1OC(=O)CC(CC(=O)O)(C(=O)O)O1` (stereo not given) + NC1CC1c1ccc(-c2cccc(O)c2)cc1 has an IC50 (second compound 0.1 µM) of 21.1 nM, an IC50 (second compound 0.316 µM) of 15.1 nM and an IC50 (second compound 1 µM) of 16.5 nM. For the same compound, the IC50 (second compound 3.16 µM) was 14.7 nM, the IC50 (second compound 10 µM) was 9.33 nM and the viability, T/C [1] was 88.6%. It also gave a viability, T/C [2] of 103%, a viability, T/C [3] of 109% and a viability, T/C [4] of 73%. It also gave a viability, T/C [5] of 38.5%, a viability, T/C [6] of 19.6% and a viability, T/C [7] of 97.4%. It also gave a viability, T/C [8] of 91.7%, a viability, T/C [9] of 117% and a viability, T/C [10] of 62.3%. The viability, T/C [11] was 38.2%, the viability, T/C [12] was 17.5% and the viability, T/C [13] was 77.9%. The viability, T/C [14] was 87%, the viability, T/C [15] was 123% and the viability, T/C [16] was 68.2%. The viability, T/C [17] was 33%, the viability, T/C [18] was 20.4% and the viability, T/C [19] was 92.8%. The viability, T/C [20] was 90.8%, the viability, T/C [21] was 116% and the viability, T/C [22] was 61.7%. The viability, T/C [23] was 38.7%, the viability, T/C [24] was 14.7% and the viability, T/C [25] was 80%. For the same compound, the viability, T/C [26] was 84.6%, the viability, T/C [27] was 113% and the viability, T/C [28] was 47.3%. For the same compound, the viability, T/C [29] was 23.9% and the viability, T/C [30] was 9.99%.
For `COc1cc(Nc2ncc3c(n2)-c2ccc(Cl)cc2C(c2c(F)cccc2OC)=NC3)ccc1C(=O)O` + NC1CC1c1ccc(-c2cccc(O)c2)cc1, the IC50 (second compound 0.1 µM) was > 1000 nM, the IC50 (second compound 0.316 µM) was > 1000 nM and the IC50 (second compound 1 µM) was > 1000 nM. The IC50 (second compound 3.16 µM) was 819 nM, the IC50 (second compound 10 µM) was > 1000 nM and the viability, T/C [3] was 66.8%. For the same compound, the viability, T/C [4] was 75.8%, the viability, T/C [5] was 73.6% and the viability, T/C [6] was 62.1%. The viability, T/C (second compound 0.1 µM, first compound 0.316 µM) was 66.8%, the viability, T/C (second compound 0.1 µM, first compound 1 µM) was 64.8% and the viability, T/C [9] was 63.6%. The viability, T/C [10] was 70.6%, the viability, T/C [11] was 65.8% and the viability, T/C [12] was 57.2%. It also gave a viability, T/C (second compound 0.316 µM, first compound 0.316 µM) of 57.3%, a viability, T/C (second compound 0.316 µM, first compound 1 µM) of 53.9% and a viability, T/C [15] of 63.5%. It also gave a viability, T/C [16] of 70.8%, a viability, T/C [17] of 61.8% and a viability, T/C [18] of 59.8%. It also gave a viability, T/C (second compound 1 µM, first compound 0.316 µM) of 57.3%, a viability, T/C (second compound 1 µM, first compound 1 µM) of 53.7% and a viability, T/C [21] of 62.1%. For the same compound, the viability, T/C [22] was 58.9%, the viability, T/C [23] was 58% and the viability, T/C [24] was 54.7%. The viability, T/C (second compound 3.16 µM, first compound 0.316 µM) was 51.7%, the viability, T/C (second compound 3.16 µM, first compound 1 µM) was 49.6% and the viability, T/C [27] was 60.2%. It also gave a viability, T/C [28] of 66.3%, a viability, T/C [29] of 65.1% and a viability, T/C [30] of 55.5%. For the same compound, the viability, T/C (second compound 10 µM, first compound 0.316 µM) was 56.8% and the viability, T/C (second compound 10 µM, first compound 1 µM) was 53.5%.
